# From patent US9546158B2, “2,5-substituted pyrimidines” (Grünenthal GmbH, priority 2014, dated 2017)
# Biological target: T1, human PDE4B1 (Homo sapiens, UniProt Q07343)
# T1 construct: host or cells: Sf9 cells
# Assay: cAMP HTRF assay to determine the activity of hPDE4B1
# Format: biochemical
# Settings: test substrate concentration of 1 μM, read-out: Inhibition of PDE4B, Inhibition in %
# Description: cAMP HTRF® Assay to Determine the Activity of hPDE4B1
# The inhibiting effect of the compounds on the enzyme activity of human PDE4B1 was measured by the quantification of 5′-adenosine monophosphate (5′-AMP), which is formed from 3′,5′-cyclic adenosine monophosphate (cAMP). Human recombinant enzyme, expressed in Sf9 cells, and the HTRF (homogeneous time-resolved fluorescence) detection method were used in the assay.
# The test compound or water (control) was mixed with the human recombinant PDE4B1 enzyme (4.8 U) in a buffer consisting of 44.4 mM tris-HCl, 5.28 mM MgCl2, 2.64 mM DTT and 0.044% Tween 20 (pH 7.8). After adding the cAMP enzyme substrate (final concentration 40 nM), the mixture was incubated for 30 minutes at room temperature. Then a fluorescence acceptor (Dye2 marked with cAMP), a fluorescence donor (anti-cAMP antibody marked with a europium cryptate) and the non-specific phosphodiesterase inhibitor IBMX (3-isobutyl-1-methylxanthine; final concentration 1 mM) were added. After 60 minutes the fluorescence transfer, which correlates with the amount of remaining cAMP, was measured with a microplate reader (Rubystar, BMG) at λex=337 nm, λem=620 nm and λem=665 nm. The enzyme activity was calculated from the quotient formed from the measured signal at 665 nm and that at 620 nm. The result was expressed as the percentage inhibition of enzyme activity of the control (without PDE4 inhibitor). The enzyme was omitted for measurement of the basal control. IC50 values (IC50=concentration causing a half-maximal inhibition of control specific activity) were derived from dose response measurements with eight different concentrations (n=2; N=1-3).
# Literature: N. Saldou et al., Comparison of recombinant human PDE4 isoforms: interaction with substrate and inhibitors, Cell. Signal. Vol. 10, No. 6, 427-440, 1998
# T1 sequence (Q07343 whole entry): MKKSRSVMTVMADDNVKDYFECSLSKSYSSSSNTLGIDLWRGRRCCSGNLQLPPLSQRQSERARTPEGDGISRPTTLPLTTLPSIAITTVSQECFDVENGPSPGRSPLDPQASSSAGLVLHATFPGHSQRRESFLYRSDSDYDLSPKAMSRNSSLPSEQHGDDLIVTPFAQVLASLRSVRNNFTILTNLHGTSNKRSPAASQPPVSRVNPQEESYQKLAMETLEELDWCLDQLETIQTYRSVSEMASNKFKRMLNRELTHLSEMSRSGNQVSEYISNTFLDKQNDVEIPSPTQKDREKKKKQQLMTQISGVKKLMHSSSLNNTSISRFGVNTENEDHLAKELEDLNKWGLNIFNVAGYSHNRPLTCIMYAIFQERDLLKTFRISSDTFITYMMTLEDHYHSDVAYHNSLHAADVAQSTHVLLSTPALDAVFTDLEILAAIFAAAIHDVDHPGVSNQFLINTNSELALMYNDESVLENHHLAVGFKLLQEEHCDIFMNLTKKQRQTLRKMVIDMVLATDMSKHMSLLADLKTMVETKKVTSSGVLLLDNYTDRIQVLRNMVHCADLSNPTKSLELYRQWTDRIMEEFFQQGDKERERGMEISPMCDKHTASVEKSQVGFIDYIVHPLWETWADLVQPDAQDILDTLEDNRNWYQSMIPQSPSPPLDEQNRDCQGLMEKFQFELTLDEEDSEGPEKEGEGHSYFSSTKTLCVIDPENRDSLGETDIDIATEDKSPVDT
row,Structure (SMILES),inhibition at 1 µM
1,"Cc1nn(-c2ncc(-c3ccccc3F)cn2)c2cc(C(=O)N3CCOCC3)ccc12 [Compound No. 1, (1-(5-(2-Fluorophenyl)pyrimidin-2-yl)-3-methyl-1H-indazol-6-yl)(morpholino)methanone]",99%
2,"O=C(c1ccc2c(C(F)(F)F)nn(-c3ncc(-c4ccccc4F)cn3)c2c1)N1CCOCC1 [Compound No. 2, (1-(5-(2-Fluorophenyl)pyrimidin-2-yl)-3-(trifluoromethyl)-1H-indazol-6-yl)(morpholino)methanone]",102%
3,"NC(=O)c1nn(-c2ncc(-c3ccccc3F)cn2)c2cc(C(=O)N3CCOCC3)ccc12 [Compound No. 3, 1-(5-(2-Fluorophenyl)pyrimidin-2-yl)-6-(morpholine-4-carbonyl)-1H-indazole-3-carboxamide]",83%
4,"O=C(c1ccc2c(C3CC3)nn(-c3ncc(-c4ccccc4F)cn3)c2c1)N1CCOCC1 [Compound No. 4, (3-Cyclopropyl-1-(5-(2-fluorophenyl)pyrimidin-2-yl)-1H-indazol-6-yl)(morpholino)methanone]",106%
5,"CS(=O)(=O)c1nn(-c2ncc(-c3ccccc3F)cn2)c2cc(C(=O)N3CCOCC3)ccc12 [Compound No. 5, (1-(5-(2-Fluorophenyl)pyrimidin-2-yl)-3-(methylsulfonyl)-1H-indazol-6-yl)(morpholino)methanone]",96%
6,"C[S+]([O-])c1nn(-c2ncc(-c3ccccc3F)cn2)c2cc(C(=O)N3CCOCC3)ccc12 (stereo not shown) [Compound No. 6, (1-(5-(2-Fluorophenyl)pyrimidin-2-yl)-3-(methylsulfinyl)-1H-indazol-6-yl)(morpholino)methanone]",97%
7,"C[S+]([O-])c1nn(-c2ncc(-c3ccccc3F)cn2)c2cc(C(=O)N3CCNCC3)ccc12 (stereo not shown) [Compound No. 8, (1-(5-(2-Fluorophenyl)pyrimidin-2-yl)-3-(methylsulfinyl)-1H-indazol-6-yl)(piperazin-1-yl)methanone]",64%
8,"C[S+]([O-])c1nn(-c2ncc(-c3ccccc3)cn2)c2cc(C(=O)N3CCNCC3)ccc12 (stereo not shown) [Compound No. 9, (3-(Methylsulfinyl)-1-(5-phenylpyrimidin-2-yl)-1H-indazol-6-yl)(piperazin-1-yl)methanone]",46%
9,"C[S+]([O-])c1nn(-c2ncc(-c3ccccc3)cn2)c2cc(C(=O)N3CCOCC3)ccc12 (stereo not shown) [Compound No. 11, (3-(Methylsulfinyl)-1-(5-phenylpyrimidin-2-yl)-1H-indazol-6-yl)(morpholino)methanone]",115%
10,"CS(=O)(=O)c1nn(-c2ncc(-c3ccccc3)cn2)c2cc(C(=O)N3CCOCC3)ccc12 [Compound No. 12, (3-(Methylsulfonyl)-1-(5-phenylpyrimidin-2-yl)-1H-indazol-6-yl)(morpholino)methanone]",62%
11,"C[S+]([O-])c1nn(-c2ncc(-c3ccccc3F)cn2)c2cc(C(=O)N3CC[C@@H](N)C3)ccc12 (stereo partly drawn) [Compound No. 13, ((R)-3-Aminopyrrolidin-1-yl)(1-(5-(2-fluorophenyl)pyrimidin-2-yl)-3-(methylsulfinyl)-1H-indazol-6-yl)methanone]",108%
12,"Cc1cccc(-c2cnc(-n3nc(C(C)O)c4ccc(C(=O)N5CCOCC5)cc43)nc2)c1 (stereo not shown) [Compound No. 18, (3-(1-Hydroxyethyl)-1-(5-(m-tolyl)pyrimidin-2-yl)-1H-indazol-6-yl)(morpholino)-methanone]",96%
13,"CC(O)c1nn(-c2ncc(-c3ccccc3)cn2)c2cc(C(=O)N3CCOCC3)ccc12 (stereo not shown) [Compound No. 19, (3-(1-Hydroxyethyl)-1-(5-phenylpyrimidin-2-yl)-1H-indazol-6-yl)(morpholino)methanone]",112%
14,"CC(O)c1nn(-c2ncc(-c3ccccc3F)cn2)c2cc(C(=O)N3CCOCC3)ccc12 (stereo not shown) [Compound No. 20, (1-(5-(2-Fluorophenyl)pyrimidin-2-yl)-3-(1-hydroxyethyl)-1H-indazol-6-yl)(morpholino)methanone]",102%
15,"COc1ccc(F)c(-c2cnc(-n3nc(C(C)O)c4ccc(C(=O)N5CCOCC5)cc43)nc2)c1 (stereo not shown) [Compound No. 21, (1-(5-(2-Fluoro-5-methoxyphenyl)pyrimidin-2-yl)-3-(1-hydroxyethyl)-1H-indazol-6-yl)(morpholino)methanone]",112%
16,"CC(O)c1nn(-c2ncc(-c3cc(C#N)ccc3F)cn2)c2cc(C(=O)N3CCOCC3)ccc12 (stereo not shown) [Compound No. 22, 4-Fluoro-3-(2-(3-(1-hydroxyethyl)-6-(morpholine-4-carbonyl)-1H-indazol-1-yl)pyrimidin-5-yl)benzonitrile]",112%
17,"Cc1cccc(-c2cnc(-n3nc([S+](C)[O-])c4ccc(C(=O)N5CCOCC5)cc43)nc2)c1 (stereo not shown) [Compound No. 23, (3-(Methylsulfinyl)-1-(5-(m-tolyl)pyrimidin-2-yl)-1H-indazol-6-yl)(morpholino)methanone]",101%
18,"COc1ccc(F)c(-c2cnc(-n3nc([S+](C)[O-])c4ccc(C(=O)N5CCOCC5)cc43)nc2)c1 (stereo not shown) [Compound No. 24, (1-(5-(2-Fluoro-5-methoxyphenyl)pyrimidin-2-yl)-3-(methylsulfinyl)-1H-indazol-6-yl)(morpholino)methanone]",100%
19,"C[S+]([O-])c1nn(-c2ncc(-c3cc(C#N)ccc3F)cn2)c2cc(C(=O)N3CCOCC3)ccc12 (stereo not shown) [Compound No. 25, 4-Fluoro-3-(2-(3-(methylsulfinyl)-6-(morpholine-4-carbonyl)-1H-indazol-1-yl)pyrimidin-5-yl)benzonitrile]",85%
20,"Cc1cccc(-c2cnc(-n3nc(S(C)(=O)=O)c4ccc(C(=O)N5CCOCC5)cc43)nc2)c1 [Compound No. 26, (3-(Methylsulfonyl)-1-(5-(m-tolyl)pyrimidin-2-yl)-1H-indazol-6-yl)(morpholino)methanone]",91%
21,"COc1ccc(F)c(-c2cnc(-n3nc(S(C)(=O)=O)c4ccc(C(=O)N5CCOCC5)cc43)nc2)c1 [Compound No. 27, (1-(5-(2-Fluoro-5-methoxyphenyl)pyrimidin-2-yl)-3-(methylsulfonyl)-1H-indazol-6-yl)(morpholino)methanone]",85%
22,"CS(=O)(=O)c1nn(-c2ncc(-c3cc(C#N)ccc3F)cn2)c2cc(C(=O)N3CCOCC3)ccc12 [Compound No. 28, 4-Fluoro-3-(2-(3-(methylsulfonyl)-6-(morpholine-4-carbonyl)-1H-indazol-1-yl)pyrimidin-5-yl)benzonitrile]",86%
23,"O=C(c1cc2c(cn1)c(C1CC1)nn2-c1ncc(-c2ccccc2F)cn1)N1CCC1 [compound 35, Azetidin-1-yl(3-cyclopropyl-1-(5-(2-fluorophenyl)pyrimidin-2-yl)-1H-pyrazolo[4,3-c]pyridin-6-yl)methanone]",59%
24,"O=C(NC1CC1)c1cc2c(cn1)c(C1CC1)nn2-c1ncc(-c2ccccc2F)cn1 [compound 36, N,3-Dicyclopropyl-1-(5-(2-fluorophenyl)pyrimidin-2-yl)-1H-pyrazolo[4,3-c]pyridine-6-carboxamide]",81%
25,"CCN(C)C(=O)c1cc2c(cn1)c(C1CC1)nn2-c1ncc(-c2ccccc2F)cn1 [compound 37, 3-Cyclopropyl-N-ethyl-1-(5-(2-fluorophenyl)pyrimidin-2-yl)-N-methyl-1H-pyrazolo[4,3-c]pyridine-6-carboxamide]",73%
